How the values were obtained:
Format in all cases: cell-based, mouse
Details in all cases: co-transfection in HeLa
[1] = system: Mmp14 3'UTR; assay: 3'UTR luciferase reporter assay, Mmp14
Experimental: (§1) For NFκB reporter assays the pGL4.32 [luc2P/NF-κB-RE/Hygro] vector (Promega) was co-transfected with a Renilla-luciferase plasmid into cells. After 24 hours, cells were treated with 50 ng/ml RANKL, 50 ng/ml sICAM1, or 10 ng/ml TNFα for analysis at indicated timepoints. Wildtype and mutant 3′UTRs were PCR amplified from mouse genomic DNA. The 3′UTRs were cloned into the pMIR-REPORT vector (AMBION®) downstream of firefly luciferase. Mutations in miRNA target sites were generated using the QuikChange Multi site-directed mutagenesis kit (Stratagene). 5×10^4 HeLa cells were plated in 24-well plates 24 hours prior to transfection. 200 ng of reporter plasmid was co-transfected with the renilla-luciferase control plasmid and 10 pM pre-miRNA precursor or precursor control (AMBION®) using Lipofectamine 2000 (Invitrogen). Cells were lysed 24 hours after transfection and assayed for luciferase activity using the Glomax 96 Luminometer (Promega). Primer sequences for cloning or mutagenesis are listed below:
(§2) Reporter constructs were co-transfected with pre-miRs, as well as a Renilla luciferase plasmid for normalization.

[2] = system: Calcr 3'UTR; assay: 3'UTR luciferase reporter assay, Calcr
Experimental: as §1, §2

[3] = system: Traf6 3'UTR; assay: 3'UTR luciferase reporter assay, Traf6
Experimental: as §1, §2

Substance	luciferase reporter activity, Calcr 3'UTR [2]	further results
miR-133a: miRNA, SEQ ID NO: 61; delivered as pre-miRNA precursor; targets Mitf and Mmp14 (UUUGGUCCCCUUCAACCAGCUA; delivered as pre-miRNA precursor, chemistry not given here; listed as Homo sapiens)		luciferase reporter activity, Mmp14 3'UTR [1]: repressed
miR-141: miRNA, SEQ ID NO: 69; delivered as pre-miRNA precursor; targets Mitf and Calcr (UAACACUGUCUGGUAACGAUGU; delivered as pre-miRNA precursor, chemistry not given here; listed as Homo sapiens)	repressed	
miR-190: miRNA, SEQ ID NO: 64; delivered as pre-miRNA precursor; targets Calcr (UGAUAUGUUUGAUAUAUUAGGU; delivered as pre-miRNA precursor, chemistry not given here; listed as Homo sapiens)	able to repress	
miR-219: miRNA, SEQ ID NO: 66; delivered as pre-miRNA precursor; targets Mitf and Traf6 (UGAUUGUCCAAACGCAAUUCU; delivered as pre-miRNA precursor, chemistry not given here; listed as Homo sapiens)		luciferase reporter activity, Traf6 3'UTR [3]: repressed

Source: patent publication US20160017326A1, “MICRORNAS AS FUNCTIONAL MEDIATORS AND BIOMARKERS OF BONE METASTASIS” (THE TRUSTEES OF PRINCETON UNIVERSITY, priority 2013, published 2016)
